Columns and labels:
[1] = tested on: parasite lactate dehydrogenase; test: Lactate dehydrogenase control enzyme activity in homogenates of treated worms; type: cell-based, Schistosoma mansoni; settings: 10 μM, treated worm homogenates
[2] = tested on: murine myeloma cell line SP2/0; test: Cytotoxicity assay (sulforhodamine B); type: cell-based
Protocol: To examine if furoxan is tolerated by mammalian cells, we incubated the murine myeloma cell line SP2/0 with the drugs at given concentrations and monitored cell viability at 24 hr and 120 hr. At 120 hr in 2 μM furoxan ˜25% mortality of myeloma cells was observed compared to 100% mortality of adult S. mansoni worms at the same concentration. Myeloma cells tolerated furoxan at concentrations as high as 100 μM. Differential cytotoxicity of furoxan on the worm survival and myeloma cells were also seen after 24 hrs of drug application.
Cytotoxicity assays were performed using sulforhodamine B to determine cellular protein content. Murine myeloma cell line SP2/0 was cultured in 96-well microtiter plates containing 0.2 ml of RPMI-1640 per well at a cell density of 900 per well at 37° C. in 5% CO2. Cells were treated with drug concentrations (or drug carrier alone) for times as indicated. After treatment, cells were fixed with 10% TCA at 4° C. for 1 hr. Fixed cells were rinsed to remove fixative and then stained in 0.4% (wt/vol) sulforhodamine B (Sigma) in 1% acetic acid for 35 min. After washing with 1% acetic acid and dye extraction in 10 mM Tris (pH 10.5), plates were read at A564 nm. The A564 nm of drug-treated cells was compared to carrier-only-treated cells.

S. mansoni infected mice = test: In vivo drug treatment of S. mansoni infected mice; design: species or system Schistosoma mansoni; settings: for decrease in worm burden vs control infected mice: perfusion day 49
[3] = molecular target: recombinant S. mansoni TGR (Schistosoma mansoni, UniProt Q962Y6); test: NO release with recombinant SmTGR (ABTS oxidation); type: biochemical; settings: 10 μM oxadiazole, 15 nM SmTGR, P<0.05
Protocol: Because oxadiazoles are known to release nitric oxide (NO) at physiological levels of thiols, we examined if NO release played a part in their mechanism of action (TGR inhibition and worm killing). […] The NO releasing capability of oxadiazoles was next tested with recombinant S. mansoni TGR enzyme with and without NADPH.
NO release by different oxadiazoles was determined by 2,2′-azino-bis(3-ethylbenzthiazoline-6-sulphonic acid) [ABTS, Sigma] oxidation method [Nims et al, Methods 7, 48-54; 1995]. Different oxadiazoles at 10 μM were incubated at RT for 50 minutes with 15 nM recombinant SmTGR in the presence or absence of 100 μM NADPH. The (oxadiazole+SmTGR/±NADPH) mixture was then added to an aerobic PBS, pH 7.4, containing 5 mM ABTS. The absorbance of the resulting green ABTS^+ were measured at A660. A conversion factor was calculated to adjust the readings from 1 ml reaction to 96-well plate. The concentrations of the released NO were calculated as a percentage of the added oxadiazoles. Each reaction was done in triplicate and the data is the average of three independent experiments. […] The slope of the regression line was calculated and used to recalculate the data at A660 in 200 μl reaction [Nims et al, Methods 7, 48-54; 1995].

adult S. mansoni worms [4] = tested on: adult S. mansoni worms
[5] = 10 mg/kg once a day, 5 days, ip; cited from earlier work
TGR = TGR (Schistosoma mansoni, UniProt Q962Y6); test: Mode of TGR inhibition; settings: through release of NO
adult S. mansoni worms [6] = test: microbe, parasite or virus in culture; settings: Schistosoma mansoni
[7] = molecular target: parasite TGR (thioredoxin reductase activity) (Schistosoma mansoni, UniProt Q962Y6); test: Thioredoxin reductase activity of TGR in homogenates of treated cultured worms; settings: 10 μM, 18 hrs treatment of cultured worms
Protocol: (§1) Freshly perfused adult S. mansoni worms were cultured with 10 μM furoxan or 50 μM NBPPTA. […] The activity of lactate dehydrogenase was monitored as a control enzyme.
(§2) Enzyme assays were performed at 25° C. in 0.1 M potassium phosphate, pH 7.4, 10 mM EDTA. Thioredoxin reductase activity of TGR was determined using either 3 mM 5,5′ dithiobis(2-nitrobenzoic acid) (DTNB, Ellman's reagent) or 16 μM recombinant S. mansoni thioredoxin-1 (Alger et al 2002). One enzyme unit was defined as the NADPH-dependent production of 2 μmol of 2-nitro-5-thiobenzoic acid per minute using ε412 nm=13.6 mM^−1 cm^−1 or the consumption of 1 μmol of NADPH (ε340 nm=6.22 mM^−1 cm^−1) during the first three minutes. Glutathione reductase activity was determined with 100 μM GSH disulfide and 100 μM NADPH by measuring the decrease in A340 nm due to consumption of NADPH (ε340 nm=6.22 mM^−1 cm^−1) during the first three minutes. Activity of the control enzyme lactate dehydrogenase (LDH) was determined with 10 μM sodium pyruvate and 100 μM NADPH. Each assay was done in triplicate and each experiment was repeated three times.
(§3) Compounds were dissolved in dimethylsulfoxide (DMSO) and added at concentrations indicated to freshly perfused worms in RPMI1640 containing 25 mM Hepes, pH 7, 150 units/ml penicillin, 125 μg/ml streptomycin, and 10% fetal calf serum (Cell Grow, Fisher). […]

[8] = molecular target: parasite TGR (GSH reductase activity) (Schistosoma mansoni, UniProt Q962Y6); test: Glutathione reductase activity of TGR in homogenates of treated cultured worms; settings: 10 μM, 18 hrs treatment of cultured worms
Protocol: as §1, §2, §3

[9] = tested on: S. mansoni infections in mice; settings: juvenile liver parasites targeted, mouse model; cited from earlier work

Chain of recombinant S. mansoni TGR (Q962Y6 1-598): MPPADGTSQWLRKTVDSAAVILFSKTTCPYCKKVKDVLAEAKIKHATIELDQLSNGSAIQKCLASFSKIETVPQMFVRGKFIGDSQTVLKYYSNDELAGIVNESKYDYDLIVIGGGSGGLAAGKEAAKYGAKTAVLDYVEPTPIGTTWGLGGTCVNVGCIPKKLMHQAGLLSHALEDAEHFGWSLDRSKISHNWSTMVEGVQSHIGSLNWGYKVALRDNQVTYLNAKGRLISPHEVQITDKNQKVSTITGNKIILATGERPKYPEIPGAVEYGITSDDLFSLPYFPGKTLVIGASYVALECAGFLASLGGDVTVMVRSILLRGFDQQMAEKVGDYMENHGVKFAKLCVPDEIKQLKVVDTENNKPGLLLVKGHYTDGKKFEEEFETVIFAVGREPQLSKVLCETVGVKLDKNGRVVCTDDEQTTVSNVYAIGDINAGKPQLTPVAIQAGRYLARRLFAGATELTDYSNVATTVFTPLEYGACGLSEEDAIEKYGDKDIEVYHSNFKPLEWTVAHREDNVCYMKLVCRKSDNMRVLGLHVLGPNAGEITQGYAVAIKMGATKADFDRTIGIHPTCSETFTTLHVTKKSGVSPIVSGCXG
Chain of TGR (Q962Y6 1-598): as above
Chain of parasite TGR (thioredoxin reductase activity) (Q962Y6 1-598): as above
Chain of parasite TGR (GSH reductase activity) (Q962Y6 1-598): as above

N#Cc1c(-c2ccccc2)no[n+]1[O-] [Analogue 9]
activity of parasite lactate dehydrogenase vs carrier only treated worms [1]: no significant change | concentration tolerated by myeloma cells [2]: ≤ 100 µM | mortality of myeloma cells ([2]; 2 μM, 120 hr): ~25% | reduction in worm burdens, all trials in mice (S. mansoni infected mice; 10 mg/kg, regardless of lifecycle stage): ≥ 89% | adult parasites recovered (S. mansoni infected mice; early stage treatment (treatment 1), total from the eight mice infected): one | liver egg granulomas (S. mansoni infected mice; treatment 1 (skin stage)): no signs of egg granulomas | hepatomegaly vs control infected mice (S. mansoni infected mice; treatment 1 (skin stage), P<0.0001): reduction of hepatomegaly | decrease in worm burden vs control infected mice (S. mansoni infected mice; treatment 1: 10 mg/kg ip once daily x5 from day 1 after infection (skin stage)): > 99% | number of liver granulomas vs control infections (S. mansoni infected mice; treatment 2 (juvenile liver stage)): considerably reduced | hepato- and splenomegaly vs control infected mice (S. mansoni infected mice; treatment 2 (juvenile liver stage), P<0.0001): dramatic reductions in hepato- and splenomegaly | decrease in worm burden vs control infected mice (S. mansoni infected mice; treatment 2: 10 mg/kg ip once daily x5 from day 23 (juvenile liver stage)): 89% | egg-induced liver granulomas vs control group (S. mansoni infected mice; treatment 3 (adult stage)): greatly reduced number | hepatomegaly vs control group (S. mansoni infected mice; treatment 3 (adult stage), P<0.0001): dramatic reduction in hepatomegaly | decrease in worm burden vs control infected mice (S. mansoni infected mice; treatment 3: 10 mg/kg ip once daily x5 from day 37 (adult egg laying)): 94% | NO release relative to the other oxadiazoles tested ([3]; +NADPH): 10 × | NO release relative to the other oxadiazoles tested ([3]; −NADPH): 3 × | activity against adult parasites (adult S. mansoni worms [4]; 0.38 μg/ml, longer times): active | time to kill worms (adult S. mansoni worms [4]; 2 μM): 120 h | worm viability with NO scavenger (adult S. mansoni worms [4]; 10 μM furoxan with 100 μM carboxy-PTIO): extended | parasite death (adult S. mansoni worms [4]; 10 μM, within 24 hr, axenically cultured adult worms): 100% | tolerability in mice [5]: well tolerated | mode of inhibition of TGR (TGR): time-dependent irreversible inhibition | inhibition at 1.87 µg/mL (adult S. mansoni worms [6]; 24 h, read-out: inhibition of motility of adult parasites): 100% | mortality at 2 µM (adult S. mansoni worms [6]; 120 h, read-out: mortality of adult S. mansoni worms): 100% | reduction of thioredoxin reductase activity of parasite TGR vs carrier control [7]: 83% | reduction of GSH reductase activity of parasite TGR vs carrier control [8]: 93%

O=C(C1CCCCC1)N1CC(=O)N2CCc3ccccc3C2C1 (stereo not drawn) [PZQ, praziquantel]
reduction in worm burdens [9]: 25-30%
